Measurements taken from patent US12692248B2, “Solid state forms of (S)-N-(3-(2-(((R)-1-hydroxypropan-2-yl)amino)-6-morpholinopyridin-4-yl)-4-methylphenyl)-3-(2,2,2-trifluoroethyl)pyrrolidine-1-carboxamide and salts thereof” (PIERRE FABRE MEDICAMENT, priority 2021, dated 2026).
Read-outs that look alike come from different tables or passages of the source.

How the values were obtained:
Assay type in all cases: physicochemical
[1] = Comparison dissolution trials in water and biorelevant media; conditions: for solubility at 0.5 h: read-out: Solubility (mg/mL) 0.5 h; for solubility at 2 h: read-out: Solubility (mg/mL) 2 h; for solubility at 24 h: read-out: Solubility (mg/mL) 24 h
Protocol: Comparison dissolution trials were performed on Compounds 1 and 2. About 20 mg of each sample was weighed into a sample vial and then 4 mL of media was added to make a suspension. All suspensions were shaken at 37° C. with a rate of 200 rpm. […] He pH of the filtrate was measured, and the filter cake was analyzed by XRPD. […] In biorelevant dissolution media FaSSIF and FeSSIF, the solubility of the Compound 1 and Compound 2 were similar.

[2] = Thermodynamic solubility in 13 solvents at RT and 50° C. by UPLC; conditions: for solubility: thermodynamic from solid; for XRPD at 1 d / XRPD at 4 d: residual solid
Protocol: Thermodynamic solubility of Compound 2 was measured in 13 solvents at RT and 50° C. by UPLC, respectively. […] In most of other selected solvents, the compound was almost insoluble (<0.5 mg/mL) except in EtOH and water where it was slightly soluble (6-9 mg/mL).

[3] = Stability at 60° C. and 40° C. at 75% relative humidity for 9 days (UPLC purity, XRPD); conditions: UPLC; for Purity −3 d: 3 days; for Purity −9 d: 9 days
Protocol: Compound 1 and Compound 2 were evaluated for stability at 60° C. and 40° C. at 75% relative humidity for 9 days. At 0, 3, and 9 days, the samples were dissolved with diluent to prepare a solution for purity analysis by UPLC. Solid samples were also analyzed by XRPD to check the crystal form.

[4] = Stability of Compound 2 in 0.5% MC/0.1% Tween 80 at 10 mg/mL; conditions: suspension 10 mg/mL in 0.5% MC/0.1% Tween 80, RT, 7 days
Protocol: A solution of Compound 2 was evaluated for stability in 0.5% MC/0.1% Tween 80 at 10 mg/mL. 10.7 mg of Compound 2 was weighed into a sample vial, and then 500 μL of 1% MC and 500 μL of 0.2% Tween 80 were added to obtain a suspension at 10 mg/mL (calculated as the free base). The mixture was kept stirring for 15 min at RT and the suspension was placed at RT for 7 days.

[5] = Dynamic Vapor Sorption (DVS); conditions: DVS
Protocol: Dynamic Vapor Sorption (DVS) Moisture sorption/desorption data was collected on a DVS Intrinsic PLUS (SMS, UK). The sample was placed into a tared sample chamber and automatically weighed. The sample was dried at 40° C./0%0 RH until the dm/dt was less than 0.00200 and cooled to 25° C. [table]

[6] = simulated gastric fluid, thermodynamic from solid, SGF, 37° C.
[7] = thermodynamic from solid, FaSSIF, 37° C.
[8] = thermodynamic from solid, FeSSIF, 37° C.
[9] = thermodynamic from solid, Water, 37° C.

Cc1ccc(NC(=O)N2CC[C@@H](CC(F)(F)F)C2)cc1-c1cc(N[C@H](C)CO)nc(N2CCOCC2)c1.Cl [Compound 2, (S)—N-(3-(2-(((R)-1-hydroxypropan-2-yl)amino)-6-morpholinopyridin-4-yl)-4-methylphenyl)-3-(2,2,2-trifluoroethyl)pyrrolidine-1-carboxamide hydrochloride]
solubility of Compound 1 and Compound 2 compared ([1]; FaSSIF and FeSSIF): similar | pH of the filtrate ([1]; Water medium): (pH 3.1) | solubility at 0.5 h [1, 6]: 0.2 mg/mL | solubility at 2 h [1, 6]: 0.27 mg/mL | solubility at 24 h [1, 6]: 0.39 mg/mL | solubility at 0.5 h [1, 7]: 0.024 mg/mL | solubility at 2 h [1, 7]: 0.021 mg/mL | solubility at 24 h [1, 7]: 0.027 mg/mL | solubility at 0.5 h [1, 8]: 0.21 mg/mL | solubility at 2 h [1, 8]: 0.2 mg/mL | solubility at 24 h [1, 8]: 0.23 mg/mL | solubility at 0.5 h [1, 9]: 1.42 mg/mL | solubility at 2 h [1, 9]: 1.36 mg/mL | solubility at 24 h [1, 9]: 2.49 mg/mL | solubility ([1]; thermodynamic from solid, water, 37° C.): ~2500 µg/mL | solubility ([2]; ACN, 50 °C, organic solvent or mixture, ACN, 50° C., read-out: Solubility at 50° C.(mg/mL)): 0.92 mg/mL | solubility ([2]; ACN, organic solvent or mixture, ACN, RT, read-out: Solubility at RT): 0.01 mg/mL | solubility ([2]; EA, 50 °C, organic solvent or mixture, EA, 50° C., read-out: Solubility at 50° C.(mg/mL)): 0.09 mg/mL | solubility ([2]; EA, organic solvent or mixture, EA, RT, read-out: Solubility at RT): 0.06 mg/mL | solubility ([2]; EtOH and water, water, EtOH and water (slightly soluble), read-out: solubility): 6 to 9 mg/mL | solubility ([2]; EtOH, 50 °C, organic solvent or mixture, EtOH, 50° C., read-out: Solubility at 50° C.(mg/mL)): 8.82 mg/mL | solubility ([2]; EtOH, organic solvent or mixture, EtOH, RT, read-out: Solubility at RT): 7.15 mg/mL | solubility ([2]; Hept, 50 °C, organic solvent or mixture, Hept, 50° C., read-out: Solubility at 50° C.(mg/mL)): 0.01 mg/mL | solubility ([2]; Hept, organic solvent or mixture, Hept, RT, read-out: Solubility at RT): 0.01 mg/mL | solubility ([2]; IPA, 50 °C, organic solvent or mixture, IPA, 50° C., read-out: Solubility at 50° C.(mg/mL)): 2.8 mg/mL | solubility ([2]; IPA, organic solvent or mixture, IPA, RT, read-out: Solubility at RT): 1.69 mg/mL | solubility ([2]; IPAC, 50 °C, organic solvent or mixture, IPAC, 50° C., read-out: Solubility at 50° C.(mg/mL)): 0.03 mg/mL | solubility ([2]; IPAC, organic solvent or mixture, IPAC, RT, read-out: Solubility at RT): 0.02 mg/mL | solubility ([2]; MEK, 50 °C, organic solvent or mixture, MEK, 50° C., read-out: Solubility at 50° C.(mg/mL)): 0.28 mg/mL | solubility ([2]; MEK, organic solvent or mixture, MEK, RT, read-out: Solubility at RT): 0.01 mg/mL | solubility ([2]; MIBK, 50 °C, organic solvent or mixture, MIBK, 50° C., read-out: Solubility at 50° C.(mg/mL)): 0.11 mg/mL | solubility ([2]; MIBK, organic solvent or mixture, MIBK, RT, read-out: Solubility at RT): 0.05 mg/mL | solubility ([2]; MTBE, 50 °C, organic solvent or mixture, MTBE, 50° C., read-out: Solubility at 50° C.(mg/mL)): 0.01 mg/mL | solubility ([2]; MTBE, organic solvent or mixture, MTBE, RT, read-out: Solubility at RT): 0.02 mg/mL | solubility ([2]; MeOH, 50 °C, organic solvent or mixture, MeOH, 50° C., read-out: Solubility at 50° C.(mg/mL)): ~102 mg/mL | Solubility at RT ([2]; MeOH, RT, hydrochloride): 54670 µg/mL | solubility ([2]; MeOH, organic solvent or mixture, MeOH, RT, read-out: Solubility at RT): ~55 mg/mL | solubility ([2]; acetone, 50 °C, organic solvent or mixture, Acetone, 50° C., read-out: Solubility at 50° C.(mg/mL)): 0.45 mg/mL | solubility ([2]; acetone, organic solvent or mixture, Acetone, RT, read-out: Solubility at RT): 0.65 mg/mL | solubility ([2]; cyclohexane, 50 °C, organic solvent or mixture, Cyclohexane, 50° C., read-out: Solubility at 50° C.(mg/mL)): 0.05 mg/mL | solubility ([2]; cyclohexane, organic solvent or mixture, Cyclohexane, RT, read-out: Solubility at RT): 0.01 mg/mL | solubility ([2]; organic solvent or mixture, most of other selected solvents (almost insoluble), read-out: solubility): < 0.5 mg/mL | XRPD at 1 d ([2]; ACN, 50° C.): Form I | XRPD at 4 d ([2]; ACN, RT): Form I | XRPD at 1 d ([2]; Acetone, 50° C.): Form I | XRPD at 4 d ([2]; Acetone, RT): Form I | XRPD at 1 d ([2]; Cyclohexane, 50° C.): Form I | XRPD at 4 d ([2]; Cyclohexane, RT): Form I | XRPD at 1 d ([2]; EA, 50° C.): Form I | XRPD at 4 d ([2]; EA, RT): Form I | XRPD at 1 d ([2]; EtOH, 50° C.): Form I | XRPD at 4 d ([2]; EtOH, RT): Form I | XRPD at 1 d ([2]; Hept, 50° C.): Form I | XRPD at 4 d ([2]; Hept, RT): Form I | XRPD at 1 d ([2]; IPA, 50° C.): Form I | XRPD at 4 d ([2]; IPA, RT): Form I | XRPD at 1 d ([2]; IPAC, 50° C.): Form I | XRPD at 4 d ([2]; IPAC, RT): Form I | XRPD at 1 d ([2]; MEK, 50° C.): Form I | XRPD at 4 d ([2]; MEK, RT): Form I | XRPD at 1 d ([2]; MIBK, 50° C.): Form I | XRPD at 4 d ([2]; MIBK, RT): Form I | XRPD at 1 d ([2]; MTBE, 50° C.): Form I | XRPD at 4 d ([2]; MTBE, RT): Form I | XRPD at 1 d ([2]; MeOH, 50° C.): Form I | XRPD at 4 d ([2]; MeOH, RT): Form I | XRPD at 1 d ([2]; Water, 50° C.): Form I | XRPD at 4 d ([2]; Water, RT): Form I | form change during the solubility testing ([2]; residual solids by XRPD): no form change | solubility ([2]; water, 50 °C, water, Water, 50° C., read-out: Solubility at 50° C.(mg/mL)): 6.73 mg/mL | solubility ([2]; water, Water, RT, read-out: Solubility at RT): 6.15 mg/mL | Purity −0 d (Area %) ([3]; 0 days (initial)): 99.77 Area % | Purity −3 d ([3]; 40° C./75% RH): 99.74 Area % | Purity −9 d ([3]; 40° C./75% RH): 99.76 Area % | Purity −3 d ([3]; 60° C.): 99.73 Area % | Purity −9 d ([3]; 60° C.): 99.74 Area % | form change [4]: No form change | purity decrease ([4]; UPLC): 0.13% | hygroscopicity [5]: slightly hydroscopic | water uptake at 80% RH ([5]; 25° C., 80% relative humidity): 0.66% | water uptake at 90% relative humidity ([5]; 25° C., 90% relative humidity): 0.95%
